The target of this assay is T1, recombinant human MetAP2 (Homo sapiens, UniProt P50579).
T1 construct: made in house; host or cells: Sf9 insect cells
Briefly: Inhibition of recombinant human MetAP2 activity (MAS substrate, amino acid oxidase/Amplex red fluorescence). As to conditions: manganese enzyme, 30 minutes at 25° C., pH 7.5, 0.75 mM MAS substrate, 1% DMSO. It counts as biochemical. Here is the method:
Compounds are tested for their capacity to inhibit recombinant human MetAP2 activity using the following assay.
Human recombinant MetAP2 expressed in Sf9 cells followed by affinity purification and EDTA treatment to remove endogenous active site cation was dialysed against MnCl2 to produce the manganese enzyme used in the assay. The assay was carried out for 30 minutes at 25° C. in 50 mM HEPES buffer containing 100 mM NaCl, pH 7.5 the presence of 0.75 mM Methionine-Alanine-Serine (MAS) substrate and 50 μg/ml amino acid oxidase using a dilution of purified MetAP2 giving >3-fold signal:noise. Cleavage of the substrate by MetAP2 and oxidation of free methionine by amino acid oxidase was detected and quantified using fluorescence generated by Amplex red (10-acetyl-3,7-dihydroxyphenoxazine) in combination with horseradish peroxidase which detects H2O2 released during the oxidation step. The fluorescent signal was detected using a multiwell fluorimeter. Compounds were diluted in DMSO prior to addition to assay buffer, the final DMSO concentration in the assay being 1%.
The IC50 is defined as the concentration at which a given compound achieves 50% inhibition of control. IC50 values are calculated using the XLfit software package (version 2.0.5).

T1 sequence (P50579 whole entry): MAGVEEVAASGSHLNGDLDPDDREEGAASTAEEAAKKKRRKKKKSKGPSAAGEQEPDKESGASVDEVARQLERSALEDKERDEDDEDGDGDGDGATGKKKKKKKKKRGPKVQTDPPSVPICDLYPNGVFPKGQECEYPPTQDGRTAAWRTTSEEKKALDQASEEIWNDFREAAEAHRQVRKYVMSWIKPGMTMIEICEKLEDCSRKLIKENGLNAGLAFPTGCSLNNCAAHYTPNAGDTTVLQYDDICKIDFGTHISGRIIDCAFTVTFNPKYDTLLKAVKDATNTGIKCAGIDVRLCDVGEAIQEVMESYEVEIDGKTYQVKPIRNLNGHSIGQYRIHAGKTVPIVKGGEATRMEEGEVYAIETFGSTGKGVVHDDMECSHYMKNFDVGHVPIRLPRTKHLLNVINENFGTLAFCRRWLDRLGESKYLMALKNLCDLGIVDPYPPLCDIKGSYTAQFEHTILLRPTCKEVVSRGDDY

`CCN(CC)C/C=C\c1cc(F)ccc1S(=O)(=O)Nc1cc(F)c2c(c1C(=O)O)OCC1CC21` (racemic) [(1aRS,7bSR)-5-[2-((Z)-3-Diethylaminoprop-1-enyl)-4-fluorobenzenesulfonyl-amino]-7-fluoro-1,1a,2,7b-tetrahydrocyclopropa[c]chromene-4-carboxylic acid]: the IC50 – broadly, the concentration that gives 50% inhibition – is below 50 nM. In the case of `CCN(CC)C/C=C\c1cc(F)ccc1S(=O)(=O)Nc1c(F)cc2c(c1C(=O)O)OCC1CC21` (racemic) [(1aRS,7bSR)-5-[2-((Z)-3-Diethylaminoprop-1-enyl)-4-fluorobenzene-sulfonylamino]-6-fluoro-1,1a,2,7b-tetrahydrocyclopropa[c]chromene-4-carboxylic acid] it was above 50 nM; in that of `CCN(CC)CCCc1cc(F)ccc1S(=O)(=O)Nc1cc(F)c2c(c1C(=O)O)OCC1CC21` (racemic) [(1aRS,7bSR)-5-[2-(3-Diethylaminopropyl)-4-fluorobenzenesulfonylamino]-7-fluoro-1,1a,2,7b-tetrahydrocyclopropa[c]chromene-4-carboxylic acid], above 50 nM; in that of `CCN1CC[C@@H](Cc2cc(F)ccc2S(=O)(=O)Nc2cc(F)c3c(c2C(=O)O)OCC2CC32)C1` (mixture of isomers) [(1aRS,7bSR)-5-[2-((R)-1-Ethylpyrrolidin-3-ylmethyl)-4-fluorobenzene-sulfonylamino]-7-fluoro-1,1a,2,7b-tetrahydrocyclopropa[c]chromene-4-carboxylic acid], below 50 nM.
